According to patent US20210253598A1, “ARYL ANNULATED MACROCYCLIC INDOLE DERIVATIVES” (priority 2017, published 2021):
Structures can show the parent of a compound that is named as a salt. Where two headings read alike, the source gives them in different places.

Tests used:
SUDHL10 [1] = test: Induction of cytotoxicity in SUDHL10 cells, CellTiter-Glo (Assay 6); format: cell-based; details: SUDHL10, 5 hours incubation, median, read-out: Cytotox SUDHL10 [M] (median)
In short: (§1)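 Viability of treated lymphoma cells is measured by luminescence with CellTiter-Glo reagent, incubated 15 minutes at room temperature. Compound exposure lasts 5 hours at 37° C.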

SUDHL10 [2] = test: Induction of caspase-3/7 activity in SUDHL10 cells (Assay 4); format: cell-based
In short: (§2)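 DLBCL lines SUDHL5 and SUDHL10 were treated with compound for 3 h at 37 °C. Caspase-3/7 activity was then read by Caspase-Glo 3/7 luminescence after 1 h at 37 °C. Medium-only background was subtracted and values were normalized to the mean of DMSO-treated cells.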

BCL-2 = BCL-2 (Homo sapiens, UniProt P10415); test: Protein-protein interaction assay BCL-2/Bad BH3 peptide, TR-FRET (BCL-2 assay, Assay 3); format: binding; details: His-BCL-2 / Bad BH3 peptide, median
Chain of BCL-2 (P10415 1-211): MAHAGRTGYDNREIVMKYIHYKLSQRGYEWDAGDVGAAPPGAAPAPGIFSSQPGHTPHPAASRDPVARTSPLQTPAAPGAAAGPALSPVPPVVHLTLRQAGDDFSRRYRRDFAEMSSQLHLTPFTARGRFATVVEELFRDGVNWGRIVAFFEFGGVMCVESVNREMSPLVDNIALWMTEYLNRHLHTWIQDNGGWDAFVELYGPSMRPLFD
Protocol: The dose-dependent inhibition by the compounds described in this invention of the interaction between BCL-2 and the BH3 domain of Bad (both human) was determined using a steady state binding competition assay with time-resolved fluorescence energy transfer (TR-FRET) readout. For that purpose BCL-2 (amino acids 1-211, C-terminal fused to a hexahistidine (6×His) tag (SEQ ID 5) and a synthetic Bad BH3-derived peptide of sequence Biotin-PEG2-PEG2-[sequence]-Nle-[sequence]-amide (SEQ ID 4) served as protein receptor and tracer ligand respectively. The recombinant BCL-2 protein (expressed in E. coli) was purchased from BPS Bioscience (San Diego, Calif., USA). The Bad BH3-derived peptide can be obtained from e.g. Biosyntan (Berlin, Germany).
For that, 100-fold concentrated DMSO solutions were prepared by serial dilutions (1:3.4) of a 2 mM stock solution in a clear, 384-well microtiter plate (Greiner Bio-One, Frickenhausen, Germany). From there, 50 nl were transferred in a dark test plate (Greiner Bio-One, Frickenhausen, Germany). The assay was initiated by addition of 2 μl of a 2,5-fold concentrated His-BCL-2 solution (usually for a 1 nM end concentration in 5 μl reaction volume) in aqueous assay buffer [50 mM Tris/HCl pH 7, 100 mM sodium chloride (NaCl), 50 mM potassium fluoride (KF), 0.005% Tween-20, 2 mM DTT, 0.1% bovine gamma globulin (BGG)] to the compounds in the assay plate. This was followed by a 10-minute incubation step at 22° C. for pre-equilibration of the putative complex between His-BCL-2 and the compounds.
The mixture was incubated in the dark for one hour at 22° C. and then overnight at 4° C. The formation of BCL-2/Bad complexes was determined by measuring the resonance energy transfer of the anti-His-Eu-cryptate antibody to the streptavidin-XL665 present in the reaction. For that purpose, the fluorescence emission at 620 nm and 665 nm after excitation at 330-350 nm was measured in a TR-FRET measuring instrument, for instance a Rubystar or a Pherastar (both from BMG Lab Technologies, Offenburg, Germany) or a Viewlux (Perkin-Elmer). The ratio of the emission at 665 nm and at 622 nm was used as indicator of the amount of BCL-2/Bad complexes present.
The resulting data (ratio) were normalized, taking 0% inhibition as the mean value of control measurements (usually 32 data points) where all reagents were included. In this case 50 nl DMSO were used instead of compounds. […] IC50 values were determined by regression analysis based on a 4 parameter equation (minimum, maximum, IC50, Hill; Y=Max+(Min−Max)/(1+(X/IC50)^Hill) using the Screener Software (Genedata).

SUDHL5 [3] = test: Induction of caspase-3/7 activity in SUDHL5 cells (Assay 4); format: cell-based
In short: as §2

SUDHL5 [4] = test: Induction of cytotoxicity in SUDHL5 cells, CellTiter-Glo (Assay 6); format: cell-based; details: SUDHL5, 5 hours incubation, median, read-out: Cytotox SUDHL5 [M] (median)
In short: as §1

MCL1 protein = molecular target: T1, MCL1 protein (Homo sapiens, UniProt Q07820); test: PIxEL: protein-protein interaction in permeabilized cells by ELISA (Assay 5); format: cell-based; details: PIxEL [M] (median), permeabilized RKO cells, biotin-BIM BH3 peptide 0.2 μM, serum free
T1 construct: this assay uses full length endogenous MCL1 protein at mitochondria outer membrane; endogenous in cells; host or cells: RKO colon cancer cell line
T1 sequence (Q07820 whole entry): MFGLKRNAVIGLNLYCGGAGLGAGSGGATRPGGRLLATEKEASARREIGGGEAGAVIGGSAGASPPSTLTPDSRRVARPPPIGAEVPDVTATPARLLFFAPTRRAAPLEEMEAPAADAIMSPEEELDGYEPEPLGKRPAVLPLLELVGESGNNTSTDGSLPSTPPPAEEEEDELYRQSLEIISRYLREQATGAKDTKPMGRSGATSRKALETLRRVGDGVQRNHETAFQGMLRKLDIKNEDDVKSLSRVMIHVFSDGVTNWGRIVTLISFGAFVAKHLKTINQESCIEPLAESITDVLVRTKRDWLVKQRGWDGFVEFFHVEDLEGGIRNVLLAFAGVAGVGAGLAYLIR
Protocol: PIxEL: Protein-Protein Interaction in Permeabilized Cells by ELISA
Most MCL1 protein molecules are localized at the mitochondria outer membrane and sequester pro-apoptotic proteins through binding of their BCL2 homology domain 3 (BH3 domain). MEB buffer (150 mM mannitol, 10 mM HEPES pH 7.5, 50 mM KCl, 20 μM EDTA, 20 μM EGTA, 5 mM potassium succinate, 0.1% protease-free BSA (SIGMA) with low dose digitonin (0.002%) permeabilizes plasma membrane while leaves live mitochondria, where MCL1 maintains its native localization and conformation. Unlike biophysical assays (e.g. TR-FRET) that use truncated recombinant MCL1 protein, this assay uses full length endogenous MCL1 protein at mitochondria outer membrane. It measures the interaction between MCL1 protein and biotinylated BIM BH3 peptide. Compounds can compete with BIM BH3 peptide to bind to MCL1 protein.
On day 1, RKO colon cancer cell line cells were plated at 0.8 million cells/ml, 100 μl/well in 96-well flat bottom TC plates (Corning). […] Each plate was tapped to make sure liquid covering entire bottom of wells and incubate at 37° C. overnight.
On the second day, MCL1 antibody was washed from ELISA plate. 250 μl Odyssey® Blocking Buffer (PBS) (Li-Cor) was added to each well, incubated at room temperature for at least 1 hour, then washed once with 250 μl 1×PBST. Plates with RKO cells were gently washed once with 100 μl/well PBS, once with 100 μl/well MEB buffer without digitonin, then 100 μl of MEB buffer with 0.002% digitonin was gently added to each well. Compounds were added with HP Tecan compound dispenser in 3-fold dilution series, highest dose 30 μM, 10-dose per compound in quadruplicates. Biotin-BIM peptide (synthesized by 21st Century) was added with HP Tecan compound dispenser at 0.2 μM immediately after the addition of compounds. Plates were rocked for 1 h at room temperature. Then MEB buffer was aspirated and 50 μl of CHAPS buffer (50 mM Tris-Cl, pH 7.4, 150 mM NaCl, 1% CHAPS, 1 mM EDTA, 1 mM EGTA, complete protease inhibitors (Roche), PhosSTOP (Roche)) was added to each well. Plates were rocked for 1 hour at 4° C., then 45 μl cell lysate from each well were transferred to ELISA plates coated with MCL1 antibody. Plates were incubated overnight in the cold room with rocking.
On the third day, ELISA plates were washed once with 250 μl 1×PBST. Streptavidin-poly-HRP (Thermo Fisher Scientific) was diluted to 20 ng/ml in Odyssey blocking buffer plus 0.05% Triton-100, and 100 μl was added to each well of the ELISA plate. Plates were incubated at RT for 1 hour with rocking, then washed with 100 μL 1×PBST for 3 times. Each SuperSignal ELISA Femto Maximum Sensitivity substrate was added to a 50-ml tube and mixed, then 100 μl of mixed substrate was added to each well. Plates were shaken for 1 minute then luminescence was measured by Envision plate reader […]. Signal of each well were normalized by no-compound control and no-cell control. IC50 was calculated using Graphic Pad PRISM software.

Compound	IC50 (SUDHL10 [1]; Homo sapiens, SU-DHL10, 5 h) [M]	EC50 (SUDHL10 [2]; Homo sapiens, SU-DHL10, 3 h, SUDHL10, 3 hours treatment, Caspase-Glo 3/7, median, read-out: Caspase SUDHL10 [M] (median))	IC50 (BCL-2) [nM]	EC50 (SUDHL5 [3]; Homo sapiens, SU-DHL-5, 3 h, SUDHL5, 3 hours treatment, Caspase-Glo 3/7, median, read-out: Caspase SUDHL5 [M] (median))	IC50 (SUDHL5 [4]; Homo sapiens, SU-DHL-5, 5 h) [M]	IC50 (MCL1 protein) [M]	IC50 (SUDHL10 [1]) [M]	EC50 (SUDHL10 [2]; read-out: Caspase SUDHL10 [M] (median), SUDHL10, 3 hours treatment, Caspase-Glo 3/7)	EC50 (SUDHL5 [3]; read-out: Caspase SUDHL5 [M] (median), SUDHL5, 3 hours treatment, Caspase-Glo 3/7)	IC50 (SUDHL5 [4]) [M]
Cc1c2c(nn1C)COCc1ccccc1Cn1c(C(=O)O)c(CCCOc3cccc4cc(F)ccc34)c3ccc(Cl)c-2c31 (single isomer, unassigned; enantiomer 1) [Example 49, (−)-3-Chloro-17-{3-[(6-fluoronaphthalen-1-yl)oxy]propyl}-4,5-dimethyl-5,7,9,14-tetrahydroindolo[7,1-fg]pyrazolo[3,4-d][2,8]benzoxazacycloundecine-16-carboxylic acid-N-ethylethanamine Salt (Enantiomer 1)]	1.6e-06	2.1e-06	≥ 21800	7.7e-07	8.8e-07	7.88e-07				
Cc1c2c(nn1C)COCc1ccccc1Cn1c(C(=O)O)c(CCCOc3cccc4ccccc34)c3ccc(F)c-2c31 (single isomer, unassigned; enantiomer 1) [Example 68, (−)-3-Fluoro-4,5-dimethyl-17-{3-[(naphthalen-1-yl)oxy]propyl}-5,7,9,14-tetrahydroindolo[7,1-fg]pyrazolo[3,4-d][2,8]benzoxazacycloundecine-16-carboxylic acid-N-ethylethanamine Salt (Enantiomer 1)]			> 20000			2.16e-06	4.6e-06	1.1e-05	1.2e-06	1.9e-06
